The record followed here is publication PMC6747051, “Screening of Antiviral Components of Ma Huang Tang and Investigation on the Ephedra Alkaloids Efficacy on Influenza Virus Type A” (Frontiers in Pharmacology, 2019).

One series concerns MDCK cells. The conditions noted are these: dog.
In series [1] the test system is influenza A virus. Conditions: for cell viability rate: dog.
In series [2] the test system is influenza A virus. The experiment in a line: microbe, parasite or virus in culture. The conditions noted are these: MDCK, 48 h, read-out: Cell survival rate.
Series [3] deals with influenza A virus. Description: Antiviral activity assay in vitro with four ways of drug delivery (MTT, MDCK cells). The series is classed as cell-based, influenza virus A/PR8/34 (H1N1). Conditions: for EC50: Influenza A virus, MDCK.
Series [4] relates to influenza A virus. Description: Viral load assay using real-time RT-PCR (M1 gene) and CPE in infected MDCK cells. The series is classed as cell-based, influenza virus A/PR8/34 (H1N1). The conditions noted are these: for virus load vs oseltamivir group: LMEP 31.25 μg/ml, LEP […], DPEP […].
Series [5] relates to IL-6, IFN-β and TNF-α levels. The series is classed as cell-based, canine.
Series [6] concerns TLRs signaling pathway mRNA. The series is classed as cell-based, canine.

Values after ≈ are worked out from the molar mass of the structure shown. Values joined by “and” are separate entries in the source; they are usually repeats but may differ in a detail not shown here. Equal entries are not always repeated. “Also recorded” adds a separate entry of the source. Where two headings read alike, the source gives them in different places.

In the series on MDCK cells (48 h), `O=C1C[C@@H](c2ccc(O[C@@H]3O[C@H](CO)[C@@H](O)[C@H](O)[C@H]3O)cc2)Oc2cc(O)ccc21` [LIQ, liquiritin] showed a TC0 of 250.00 µg/mL and a TC50 of 680.77 µg/mL (≈ 1630 µM). The “effect on the cell viability after virus infection (in words)” value (“effect on the cell viability” for short) in the series with influenza A virus [1] is listed as “little antiviral effect”. Besides, in the series with influenza A virus [2], the viability at 7.81 µg/mL is 26.6%, the viability at 31.25 µg/mL turned out to be 28.4%, the viability at 125 µg/mL was found to be 32.2% and the viability at 250 µg/mL was 33.7%. For the same compound, in the series with influenza A virus [2], the viability at […] was 26.9% and 28%.
For `OC/C=C/c1ccccc1` [CAO, cinnamic alcohol], in the series on MDCK cells, the TC0 came to 125.00 µg/mL and the TC50 amounted to 390.84 µg/mL (≈ 2910 µM). Besides, the “effect on the cell viability” value in the series with influenza A virus [1] is listed as “little antiviral effect”. Also, in the series with influenza A virus [2], the viability at 3.91 µg/mL came to 25%, the viability at 7.81 µg/mL came out at 25.9%, the viability at 31.25 µg/mL turned out to be 26.4% and the viability at 125 µg/mL turned out to be 32.6%. The viability at […] in the series on influenza A virus [2] is 26.7% and 29.9%.
For `O=C(O)/C=C/c1ccccc1` [CMA, cinnamic acid], the “effect on the cell viability” value with influenza A virus [1] is recorded as “little antiviral effect”. In the series on influenza A virus [2], the viability at 1.95 µg/mL was found to be 27.7%, the viability at 3.91 µg/mL is 27.9%, the viability at 7.81 µg/mL was found to be 30.9% and the viability at 31.25 µg/mL is 33.5%. The viability at […] in the series with influenza A virus [2] was 34.8%.
In the series on MDCK cells (48 h), `CC1(C)[C@@H](O[C@H]2O[C@H](C(=O)O)[C@@H](O)[C@H](O)[C@H]2O[C@@H]2O[C@H](C(=O)O)[C@@H](O)[C@H](O)[C@H]2O)CC[C@]2(C)[C@H]3C(=O)C=C4[C@@H]5C[C@@](C)(C(=O)O)CC[C@]5(C)CC[C@@]4(C)[C@]3(C)CC[C@@H]12` [GA, glycyrrhizic acid] gave a TC0 of 125.00 µg/mL and a TC50 of 663.74 µg/mL (≈ 807 µM). In the series with influenza A virus [1], the “effect on the cell viability” value is given as “slightly increase the cell viability rate, but not obviously” and the cell viability rate result is given as “about 47%”. Moreover, in the series on influenza A virus [2], the viability at 3.91 µg/mL was 31.1%, the viability at 7.81 µg/mL is 32.8%, the viability at 31.25 µg/mL was 43% and the viability at 125 µg/mL stood at 47.2%. The viability at […] in the series with influenza A virus [2] was 34.4% and 46%.
`N#C[C@H](O[C@@H]1O[C@H](CO[C@@H]2O[C@H](CO)[C@@H](O)[C@H](O)[C@H]2O)[C@@H](O)[C@H](O)[C@H]1O)c1ccccc1` [AMY, amygdalin]: in the series on MDCK cells, the TC0 turned out to be 31.25 µg/mL and the TC50 came out at 563.64 µg/mL (≈ 1230 µM). The “effect on the cell viability” value in the series with influenza A virus [1] is “little antiviral effect”. In addition, in the series with influenza A virus [2], the viability at 0.98 µg/mL amounted to 26.2%, the viability at 1.95 µg/mL amounted to 27%, the viability at 3.91 µg/mL stood at 29% and the viability at 7.81 µg/mL came to 27.9%. Besides, in the series with influenza A virus [2], the viability at 31.25 µg/mL amounted to 28.9% and the viability at […] turned out to be 28.2%.
On to `C[C@@H]([C@H](O)c1ccccc1)N(C)C` [LMEP, L-methylephedrin], for which, in the series with influenza A virus [3] (31.25 μg/ml (highest concentration), post-treatment host cells after virus infection), the “antiviral effective rate (ER)” value is 63.52% and 64.16%. Besides, the “antiviral effective rate (ER)” value with influenza A virus [3] (31.25 μg/ml, limited treatment of 1 hour during virus infection) is given as 60.58%. In addition, in the series with influenza A virus [3] (31.25 μg/ml, pre-treatment host cells prior to virus infection), the “antiviral effective rate (ER)” value is recorded as 56.94%. For the same compound, the “antiviral effective rate (ER)” value with influenza A virus [3] (31.25 μg/ml, pre-treatment of virus with drug) was found to be 61.48%. Also, the EC50 with influenza A virus [3] (drug delivery way: Blocking viruses invading host cells) worked out at 20.4 µg/mL (≈ 114 µM). Besides, the EC50 in the series with influenza A virus [3] (drug delivery way: Directly inhibiting virus) came to 7.55 µg/mL (≈ 42.1 µM). In addition, it took 6.65 µg/mL (≈ 37.1 µM) to reach a half-maximal effect in the series with influenza A virus [3] (drug delivery way: Inhibiting the biosynthesis of virus) (EC50). The compound further came in with an EC50 with influenza A virus [3] (drug delivery way: Intervening the adsorption of virus) of 7.85 µg/mL (≈ 43.8 µM). Also, in the series with influenza A virus [3] (final concentration 3.91 μg/ml), the “antiviral effective rate (ER)” value is “more than 34.00%”. Moreover, the “CPE of infected MDCK cells” value with influenza A virus [4] (24 and 48 h after administration) was “significantly reduce the CPE”. Further, the “virus load vs oseltamivir group” value with influenza A virus [4] (24 h treatment, P < 0.05) is “significantly lower than that of oseltamivir group”. Moreover, the “virus load vs oseltamivir group” value in the series with influenza A virus [4] (48 h treatment) is given as “no difference”. Moreover, the “viral load in MDCK cells vs control infected group” value in the series on influenza A virus [4] (each dose group, 24 and 48 h after administration, P < 0.01 or P < 0.05) is on record as “significantly decreased”. For the same compound, in series [5], the “IL-6 level in cell supernatant vs control infected group” value was “significantly higher than that in the control infected group”, the “level of IFN-β in cell supernatant vs control infected group” value is recorded as “significantly increase; also recorded: increased” and the “secretion of TNF-α vs control infected group” value is on record as “significantly inhibited the secretion of TNF-α”. Besides, in series [6], the “mRNA expression levels of TLR7, NF-κB p65, TLR3 and IRF3” value is listed as “significantly reduced”; the “mRNA expression of IFN-β” value was “significantly increased”; the “mRNA expression of TLR4” value is reported as “significant decreased”; the “mRNA expression of TLR4, MyD88 and TRAF3” value was “significantly reduced”. Besides, the “mRNA expression of TRAF3” value in series [6] is recorded as “significantly reduced”. Further, in the series with MDCK cells, the TC0 is 31.25 µg/mL, the TC50 stood at 216.77 µg/mL (≈ 1210 µM) and the “cells' survival rate” value is “higher than 90%”. The cell viability rate in the series on influenza A virus [1] was no less than 70%. For the same compound, in the series on influenza A virus [2], the viability at 0.98 µg/mL is 57.3%, the viability at 1.95 µg/mL is 63.2%, the viability at 3.91 µg/mL is 66.6% and the viability at 7.81 µg/mL is 70.3%. In addition, in the series on influenza A virus [2], the viability at 31.25 µg/mL worked out at 77.8% and the viability at […] came out at 75.1%.
